Assays:
[1] = test system: MACH1-T1R; assay: MIC, microaerobic 96 well-plate, MOPS minimal media, IroK expression studies (Example 45); assay type: cell-based, E. coli; conditions: for MIC of other organic acids of similar molecular makeup on IroK expression: IroK expressed from pKK223-3
Experimental: The two oligonucleotides were added in a 1:1 ratio and annealed according to standard methodology in a thermal cycler. Ligation of the annealed primer product with the pKK223-3 expression vector (SEQ ID NO:008, Pharmacia, Piscataway, N.J.) was performed with T4 Ligase (Invitrogen, Carlsbad, Calif.) and incubated at 25° C. overnight. The ligation product was then electroporated into competent MACH1™-T1^R, plated on LB+ampicillan, and incubated at 37° C. for 24 hours. Plasmids were isolated and confirmed by purification and subsequent restriction digest and sequencing (Macrogen, Rockville, Md.). MICs were then determined corresponding to 1 mM IPTG induction.
The minimum inhibitory concentration (MIC) was determined microaerobically in a 96 well-plate format. Overnight cultures of strains were grown in 5 mL LB (with antibiotic where appropriate). A 1% (v/v) inoculum was introduced into a 15 ml culture of MOPS minimal media. After the cells reached mid-exponential phase, the culture was diluted to an OD600 of 0.200. The cells were further diluted 1:20 and a […] aliquot was used to inoculate each well of a 96 well plate (˜10^4 cells per well).

[2] = test system: BX3_0194; assay: 3-HP production by BX3_0194 in SM3 medium without and with 10 μg/ml cerulenin; assay type: cell-based, E. coli
Experimental: All data are the average of triplicate cultures.
Under these conditions, the specific productivity after 24 hours is 1.3 g 3HP per gDCW.

[3] = test system: BX3_0206; assay: 3-HP production by BX3_0206 in SM3 medium without and with 10 μg/ml cerulenin; assay type: cell-based, E. coli
Experimental: All data are the average of triplicate cultures. […] Under these conditions, the specific productivity after 24 hours is […] 3HP per gDCW.

[4] = test system: BX3_0195; assay: 3-HP production by BX3_0195 in SM3 medium without and with 10 μg/ml cerulenin; assay type: cell-based, E. coli
Experimental: Cultures were started from freezer stocks by standard practice (Sambrook and Russell, 2001) into 50 mL of LB media plus 100 μg/mL ampicillin and grown to stationary phase overnight at 37° C. with rotation at 225 rpm. Five ml of this culture were transferred to 100 ml of SM3 media plus 40 g/L glucose, 100 μg/ml ampicillin, and 1 mM IPTG in triplicate 250-ml baffled flasks and incubated at 37° C., 225 rpm. […] Dry cell weight (DCW) is calculated as 0.33 times the measured OD600 value, based on baseline DCW to OD600 determinations. All data are the average of triplicate cultures.

[5] = test system: E. coli K12; conditions: aerobic, 24 h; putrescine, cadaverine, spermidine 0.1 g/L, sodium bicarbonate 20 mM; value is the 3-HP concentration
[6] = 24 hr, SM3 medium, presence of 10 μg/ml cerulenin

CC(O)C(=O)O (centres unmarked) [lactic, lactic acid]
MIC of other organic acids of similar molecular makeup on IroK expression [1]: unchanged

C=CC(=O)O [acrylic, acrylic acid]
MIC of other organic acids of similar molecular makeup on IroK expression [1]: unchanged

CC(=O)O [acetic, acetic acid]
MIC of other organic acids of similar molecular makeup on IroK expression [1]: unchanged

MKPALRDFIAIVQERLASVTA [IroK]
fold increase in MIC of 3-HP on increased expression of IroK ([1]; expressed from pKK223-3, 1 mM IPTG, microaerobic, MOPS minimal media, 24 h): > 2 fold

C/C=C/C/C=C/CCC(=O)[C@H]1O[C@H]1C(N)=O [cerulenin]
specific productivity after 24 hours [2]: 1.3 g 3HP per gDCW
3HP ([2]; 4 hr): 0.003 g/L
OD600 ([2]; 4 hr): 1.3
3HP ([2]; 6 hr): 0.14 g/L
OD600 ([2]; 6 hr): 2.6
3HP ([2]; 8 hr): 0.43 g/L
OD600 ([2]; 8 hr): 3.1
3HP ([2]; 24 hr): 1.43 g/L
OD600 ([2]; 24 hr): 3.3
3HP [3, 6]: 0.43 g/L
OD600 [3, 6]: 6.4
specific productivity after 24 hours ([3]; BX3_0206, SM3 medium, 10 μg/ml cerulenin): 0.20 g 3HP per gDCW
specific productivity after 24 hours [4]: 0.54 g 3HP per gDCW
3HP ([4]; 4 hr): 0.003 g/L
OD600 ([4]; 4 hr): 0.97
3HP ([4]; 6 hr): 0.07 g/L
OD600 ([4]; 6 hr): 1.57
3HP ([4]; 8 hr): 0.31 g/L
OD600 ([4]; 8 hr): 2.36
3HP ([4]; 24 hr): 1.17 g/L
OD600 ([4]; 24 hr): 6.59

O=C([O-])O.[Na+] [sodium bicarbonate]
Minimum inhibitory concentration (MIC) of 3-HP for E. coli K12 in M9 minimal media supplemented with the substance [5]: 30 mg/mL
